Measurements as given in article PMC8635623, “A click chemistry approach to pleuromutilin derivatives, evaluation of anti-MRSA activity and elucidation of binding mode by surface plasmon resonance and molecular docking” (Journal of Enzyme Inhibition and Medicinal Chemistry, 2021).
≈ marks a conversion by molar mass, not a printed value.

Assays:
[1] = system: MRSA ATCC 43300; test: MIC/MBC by broth micro dilution; format: cell-based, methicillin-resistant S. aureus; conditions: Staphylococcus aureus; for MIC: 37 °C, 24 h, read-out: MIC; for MBC: lowest concentration reducing viable counts by 99.9%
Experimental: (§1) All the synthesised 1,2,3-triazole linked pleuromutilin analogues were screened for in vitro antibacterial activities against methicillin-resistant S. aureus (ATCC 43300), S. aureus (ATCC 29213), and two clinical strains of S. aureus (AD3 and 144, isolated from Guangdong Province, China). The MICs and MBCs of the synthesised pleuromutilin derivatives along with pleuromutilin and tiamulin used as the reference antibacterial drugs, were determined by the broth micro dilution methods according to the Clinical and Laboratory Standards Institute (CLSI)[18].
(§2) The MIC of these novel pleuromutilin derivatives against methicillin-resistant S. aureus (ATCC 43300), S. aureus (ATCC 29213), S. aureus (AD3) and S. aureus (144) were determined by using pleuromutilin and tiamulin as positive control. MIC values were determined by the broth micro dilution methods in accordance with the Clinical and Laboratory Standards Institute (2012). Stock solutions of these compounds were dissolved in methanol to make a stock solution with a concentration of 1280 µg/mL. The working solutions (640 µg/mL) were obtained by diluting stock solutions in sterile Mueller-Hinton (MH) broth. The bacterial solution and solutions of these compounds with a final concentration of 0.016–32 µg/mL were distributed into 96-well plates, with a total volume of 200 µL. Three parallel experiments for each compound concentration. The plates were incubated at 37 °C for 24 h.
(§3) MBC values were determined according to CLSI (2003) and previously report with slightly modification[18]^,[28]^,[31]. After obtaining the MIC results, the 96-well plates were incubated at 37 °C for 24 h. 100 µL of the bacterial solution from the wells with no visible growth was inoculated on MH agar plates. The MH agar plates were incubated at 37 °C for colony count. The MBC was determined as the lowest concentration of compound, which reduces the viable counts for 99.9%.

[2] = system: S. aureus 144; test: MIC/MBC by broth micro dilution; format: cell-based; conditions: Staphylococcus aureus, S. aureus 144 (clinical strain); for MIC: 37 °C, 24 h; for MBC: lowest concentration reducing viable counts by 99.9%
Experimental: as §1, §2, §3

[3] = system: S. aureus AD3; test: MIC/MBC by broth micro dilution; format: cell-based; conditions: Staphylococcus aureus, S. aureus AD3 (clinical strain); for MIC: 37 °C, 24 h; for MBC: lowest concentration reducing viable counts by 99.9%
Experimental: as §1, §2, §3

[4] = system: S. aureus ATCC 29213; test: MIC/MBC by broth micro dilution; format: cell-based; conditions: Staphylococcus aureus; for MIC: ATCC29213, 37 °C, 24 h; for MBC: ATCC29213, lowest concentration reducing viable counts by 99.9%
Experimental: as §1, §2, §3

[5] = system: MRSA ATCC 43300; test: Constant concentration time-kill curves; format: cell-based, methicillin-resistant S. aureus
Experimental: The time-kill kinetic approach was used to investigate the anti-MRSA activity of compounds 50, 62 and 64. The experimental results were presented in graphic form in Figure 2. Compared with growth control, compounds 50 and 62 inhibited the reproduction of bacteria to a certain extent.
The time-kill curve determination is an in vitro bactericidal kinetics model, which is used to study the sustained killing effect of bacteria within 24 h at a certain drug concentration. The bactericidal activity of compounds 50, 62 and 64 was determined by the time-kill curve as reported in our previous work[18]^,[22]. MRSA grown in MH broth were diluted to approximately 1 × 10^6 CFU/mL. […] 100 µL of samples were collected from the subculture inoculums before culture (0 h) and 3 h, 6 h, 9 h and 24 h after culture, and serially diluted 10-flod with sterile saline. The dilution of each gradient (25 µL) was uniformly suspended on the MH agar plates. The total bacterial CFU/mL on the plates were counted to calculate the bacterial colonies after up to 20 h of incubation at 37 °C. The results are represented by Mean ± SD, with the log10 CFU/mL of bacteria counts as the ordinate and time as the abscissa, the time-kill curves of different concentrations of compounds against MRSA were established respectively.

[6] = molecular target: 50S ribosome; test: SPR binding studies; parameters: species or system S. aureus; conditions: 4 °C; for Kd: PBST pH 7.4, KD = Kd/Ka, read-out: KD (equilibrium dissociation constant); for Ka (association rate constant) / Kd (dissociation rate constant): PBST pH 7.4, compound immobilised, 50S ribosome 200-3200 nM
Experimental: In order to gain some insight into the binding mode of the potent inhibitors, SPR experiments were performed. […] The response unit (RU) of surface resonance was compared to determine the different binding affinities between each compound and the 50S ribosome. The association rate constants (Ka) and dissociation rate constant (Kd) represent the rate of association and dissociation in the binding reaction, respectively. The equilibrium dissociation constant (KD) indicated the degree of dissociation of compounds and the 50S ribosome in the equilibrium state. Their binding curves during the experiment were shown in Figure 3, as well as the concentration gradient curves were shown in Figure SI 27–34.
SPR biosensing experiments were performed at 4 °C using the bScreen LB 991 Label-free Microarray System (Berthold Technologies, Germany) and the photo-cross-linker sensor chip. The BIODOT™ AD-1520 Array Printer (BIODOT Inc., USA) was used for printing samples and control on the chip surface. A UV Spectroirradiator 1020 (Amersham Life Science, USA) was used for the photo-cross-linking reaction quickly after the array print.
As described in the reference[32–34] with minor modifications, the ribosome of S. aureus were extracted and purified to obtain 50S ribosome. MRSA (ATCC 43300) was incubated overnight at 37 °C. The bacteria solution was inoculated into a new culture solution, and cells were collected at an OD600 = 1.5. The bacterial culture was centrifuged 3 times at 3,500 rpm using a TX-400 rotor at 4 °C for 30 min, and then the supernatant was discarded. Cells were washed twice with 10 mM Tris-HCl (pH = 7.5), and suspend the precipitate with buffer A (20 mM HEPES-HCl pH = 7.5, 100 mM NH4Cl, 21 mM Mg(OAc)2, 1 mM EDTA, 1 mM DTT). Cells were lysed by repeated (>3×) snap-freezing and thawing, then ultrasonic disintegration was performed. To remove cell debris, the crushed product was centrifuged at 20,000 rpm for 90 min at 4 °C.The lysate layered on 15 ml of a sucrose cushion (10 mM HEPES-HCl pH = 7.5, 500 mM KCl, 25 mM Mg(OAc)2, 1.1 M sucrose, 0.5 mM EDTA, 1 mM DTT) and centrifuged in the ultracentrifuge(Optima^TM TL 100) at 45,000 rpm using a type70Ti rotor at 4 °C for 15 h to obtain ribosomal particles. Pellet was resuspended in 3 ml of buffer E (10 mM HEPES-HCl pH = 7.5, 100 mM KCl, 1 mM Mg(OAc)2, 0.5 mM EDTA, 1 mM DTT), then layered on 9 ml of 7–30% sucrose gradient and ultracentrifuged at 17,100 rpm using a typeSW40Ti rotor at 4 °C for 15 h. The gradient was analysed on the AKTA explorer system. The fractions corresponding to 50S ribosome were collected and PEG 20000 was added to a final concentration of 4.5% w/v. Ribosomes were pelleted by centrifugation at 20,000 rpm for 12 min, the pellet was gently dissolved in 200 µL of storage buffer (10 mM HEPES-HCl pH = 7.5, 15 mM KCl, 60 mM NH4Cl, 10 mM Mg(OAc)2, 1 mM DTT) and then flash-frozen for storage at −80 °C.
Dilute these compounds to a concentration of 10 mM with DMSO as the stationary phase printing working solution. After that, the printing working solution was printed on the sensor chip by the array printer, and each sample was printed four times repeatedly. Four groups of positive control dots (12 rapamycin dots, 3 in each corner) were printed on the four corners of the sensor chip respectively. The sample dots were dried in vacuum, and the sensor chip was quickly transferred to the UV spectroirradiator for a photo-cross-linking reaction. Subsequently, the sensor chip was washed with DMF, methanol, and water for 15 min in turn, followed by blowing dry under nitrogen, and then assembled with Flowcell Cover.
The binding studies were performed with PBST running buffer (pH = 7.4, 0.1% Tween 20) at a constant flow rate of 0.5 µL/s in instrument. 50S Ribosome was diluted separately with PBST running buffer to 200 nM, 400 nM, 800 nM, 1600 nM and 3200 nM and injected consecutively for 600 s at associating stage, followed by running buffer for 360 s at each dissociating stage. […]

Row | Compound | MIC [1] | MBC [1] | MIC [2] | MBC [2] | MIC [3] | MBC [3] | MIC [4] | MBC [4] | time-kill kinetics result ([5]; 8 × MIC, cultured for 24 h) | concentration giving a bactericidal effect ([5]; time-kill, MRSA) | Kd [6] | Ka (association rate constant) [6] | Kd (dissociation rate constant) [6]
1 | C=C[C@]1(C)C[C@@H](OC(=O)Cn2cc(CN3CCN(c4ccccc4C)CC3)nn2)[C@]2(C)[C@H](C)CC[C@]3(CCC(=O)[C@H]32)[C@@H](C)[C@@H]1O [Compound 50, 22-(2-(4-(4-(o-Tolyl)-piperazin-1-yl)-methyl)-1H-1,2,3-triazol-1-yl)-22-deoxy pleuromutilin] | 1 µg/mL (≈ 1.62 µM) | 2 µg/mL (≈ 3.24 µM) | 4 µg/mL (≈ 6.47 µM) | 4 µg/mL (≈ 6.47 µM) | 2 µg/mL (≈ 3.24 µM) | 4 µg/mL (≈ 6.47 µM) | 1 µg/mL (≈ 1.62 µM) | 2 µg/mL (≈ 3.24 µM) | relatively anti-MRSA bacteriostatic kinetics | higher than 4 × MIC | 0.0232 µM | 170 M⁻¹ s⁻¹ | 3.93e-06 s⁻¹
2 | C=C[C@]1(C)C[C@@H](OC(=O)Cn2cc(CN3CCN(c4cccc(C)c4)CC3)nn2)[C@]2(C)[C@H](C)CC[C@]3(CCC(=O)[C@H]32)[C@@H](C)[C@@H]1O [Compound 51, 22-(2-(4-(4-(m-Tolyl)-piperazin-1-yl)-methyl)-1H-1,2,3-triazol-1-yl)-22-deoxy pleuromutilin] | 1 µg/mL (≈ 1.62 µM) | 2 µg/mL (≈ 3.24 µM) | 4 µg/mL (≈ 6.47 µM) | 8 µg/mL (≈ 12.9 µM) | 2 µg/mL (≈ 3.24 µM) | 4 µg/mL (≈ 6.47 µM) | 2 µg/mL (≈ 3.24 µM) | 4 µg/mL (≈ 6.47 µM) |  |  | 8.66 µM | 3800 M⁻¹ s⁻¹ | 0.0329 s⁻¹
3 | C=C[C@]1(C)C[C@@H](OC(=O)Cn2cc(CN3CCN(c4ccccc4F)CC3)nn2)[C@]2(C)[C@H](C)CC[C@]3(CCC(=O)[C@H]32)[C@@H](C)[C@@H]1O [Compound 53, 22-(2-(4-(4-(2-Fluorophenyl)-piperazin-1-yl)-methyl)-1H-1,2,3-triazol-1-yl)-22-deoxy pleuromutilin] | 2 µg/mL (≈ 3.22 µM) | 4 µg/mL (≈ 6.43 µM) | 8 µg/mL (≈ 12.9 µM) | 8 µg/mL (≈ 12.9 µM) | 4 µg/mL (≈ 6.43 µM) | 8 µg/mL (≈ 12.9 µM) | 4 µg/mL (≈ 6.43 µM) | 8 µg/mL (≈ 12.9 µM) |  |  | 51 µM |  | 0.00403 s⁻¹
4 | C=C[C@]1(C)C[C@@H](OC(=O)Cn2cc(CN3CCN(c4cccc([N+](=O)[O-])c4)CC3)nn2)[C@]2(C)[C@H](C)CC[C@]3(CCC(=O)[C@H]32)[C@@H](C)[C@@H]1O [Compound 63, 22-(2-(4-(4-(3-Nitrophenyl)-piperazin-1-yl)-methyl)-1H-1,2,3-triazol-1-yl)-22-deoxy pleuromutilin] | 2 µg/mL (≈ 3.08 µM) | 2 µg/mL (≈ 3.08 µM) | 4 µg/mL (≈ 6.17 µM) | 16 µg/mL (≈ 24.7 µM) | 2 µg/mL (≈ 3.08 µM) | 4 µg/mL (≈ 6.17 µM) | 4 µg/mL (≈ 6.17 µM) | 8 µg/mL (≈ 12.3 µM) |  |  | 3.48 µM | 992 M⁻¹ s⁻¹ | 0.00345 s⁻¹
5 | C=C[C@]1(C)C[C@@H](OC(=O)CSCCN(CC)CC)[C@]2(C)[C@H](C)CC[C@]3(CCC(=O)[C@H]32)[C@@H](C)[C@@H]1O [Tiamulin, tiamulin, reference compound] | 0.5 µg/mL (≈ 1.01 µM) | 1 µg/mL (≈ 2.03 µM) | 1 µg/mL (≈ 2.03 µM) | 2 µg/mL (≈ 4.05 µM) | 1 µg/mL (≈ 2.03 µM) | 2 µg/mL (≈ 4.05 µM) | 0.5 µg/mL (≈ 1.01 µM) | 1 µg/mL (≈ 2.03 µM) |  |  | 0.0363 µM | 122 M⁻¹ s⁻¹ | 4.44e-06 s⁻¹
